Columns and labels:
[1] = system: genotype 2b luciferase reporter-linked HCV replicons; experiment: HCV replication assay in combination with NS3 protease inhibitor SCH503034; assay type: cell-based, Hepatitis C Virus; conditions: combination with various concentrations of SCH503034, FIG. 11
Experimental: FIG. 11. 4BAH2 inhibitors can increase the anti-HCV activity of agents targeting other elements of HCV. The compound of FIG. 10 was tested in standard HCV replication assays as in FIG. 10 but in the presence of various concentrations of an NS3 protease inhibitor (SCH503034, “SCH”). Note that in these assays a genotype 2b luciferase reporter-linked HCV replicons was used, indicating the broad spectrum potential of the C4 compound against multiple HCV genotypes.
To determine the optimum combination of an HCV AH function inhibiting agent, such as 5-(N-Methyl-N-isobutyl)amiloride, with other anti-HCV agents, HCV replication assays and/or animal studies can be performed in the presence of various combinations of the various anti-HCV agents. Increased inhibition of replication in the presence of an additional agent (above that observed with monotherapy) is evidence for the potential benefit of the combination therapy. For example, HCV replication assays employing a luciferase reporter-linked HCV genome in the presence of various combinations of 3-amino-N-carbamimidoyl-6-chloro-5-(isobutyl(methyl)amino)pyrazine-2-carboxamidepyrazine-2-carboxamide and an NS3 protease inhibitor (SCH503034) are described elsewhere in this application and some results are shown in FIG. 11.
Effect of hits on HCV replication. […]

genotype 1b 4BAH2 [2] = molecular target: T1, genotype 1b 4BAH2 (Hepatitis C virus genotype 1b, UniProt Q9WMX2); experiment: QCM-D of 4BAH2 membrane association with POPC bilayer, genotype 1b; assay type: binding; set-up: purchased Anaspec Corporation (San Jose, Calif., USA)
T1 sequence (Q9WMX2 1754-1776): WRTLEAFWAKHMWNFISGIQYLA
Experimental: (§1) Quartz Crystal Microbalance-Dissipation (QCM-D). Adsorption kinetics and the properties of the adsorbed layer were studied using a Q-Sense E4, multiple channel system (Q-Sense AB, Gothenburg, Sweden). The samples are introduced using a peristaltic pump with flow rate of 0.1 mL·min^−1. AT-cut quartz crystals (Q-Sense) of 14 mm in diameter coated with a SiOx layer were used for all vesicle interaction and adsorption experiments. Each QCM crystal was treated with oxygen plasma at ˜80 watts for 3 min prior to measurement (March Plasmod Plasma Etcher, March Instruments, California, USA). Each crystal was initially driven near its resonance frequency as indicated by a maximum in the current. To capture the characteristic dissipation, the drive circuit was short-circuited and the exponential decay of the crystal oscillation was recorded and analyzed, yielding the frequency and dissipation changes at 5, 15, 25, 35, 45, 55, and 65 MHz. The temperature of the Q-Sense cell was set at 25.0° C. and accurately controlled by a Peltier element in the cell with fluctuation smaller than ±0.05° C. All experiments were repeated at least three times, with a standard deviation of less than 2%.

genotype 2a 4BAH2 = genotype 2a 4BAH2 (Hepatitis C virus genotype 2a, UniProt Q99IB8); experiment: QCM-D of 4BAH2 membrane association with POPC bilayer, genotype 2a; assay type: binding; set-up: purchased Anaspec Corporation (San Jose, Calif., USA)
Sequence of genotype 2a 4BAH2 (Q99IB8 1758-1780): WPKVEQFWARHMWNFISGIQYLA
Experimental: as §1

genotype 1b 4BAH2 [3] = molecular target: T1, genotype 1b 4BAH2; experiment: DLS assay of 4BAH2-induced POPC lipid vesicle aggregation, genotype 1b peptide; assay type: biochemical; set-up: purchased Anaspec Corporation (San Jose, Calif., USA); host or cells: chemical synthesis; conditions: POPC vesicles
Experimental: Dynamic light scattering. Dynamic light scattering was performed by a 90Plus particle size analyzer, and the results were analyzed by digital autocorrelator software (Brookhaven Instruments Corporation, New York). All measurements were taken at a scattering angle of 90°, where the reflection effect is minimized. Dynamic light scattering (DLS) is a well established technique for measuring particle size over the size range from a few nanometers to a few microns. The concept uses the idea that small particles in a suspension move in a random pattern, i.e., Brownian motion. When a coherent source of light (such as a laser) having a known frequency is directed at the moving particles, the light is scattered at a different frequency. The shift in light frequency is related to the size of the particles causing the shift. Due to their higher average velocity, smaller particles cause a greater shift in the light frequency than larger particles. […]
Dynamic Light Scattering. Dynamic light scattering (DLS) was performed using a doubled, Nd:YAG laser (model 532 DPSS, Coherent Laser Group, Santa Clara, Calif.) with a wavelength, λ, of […] and a Brookhaven digital autocorrelator, and analyzed by digital autocorrelator software (Brookhaven Instruments Corporation, New York, USA). […] DLS results were analyzed to give an intensity-weighted size distribution using a discrete Laplace inversion routine. […]

In the case of `CC(C)CN(C)c1nc(N)c(C(=O)NC(=N)N)nc1Cl` [C4, 3-amino-N-carbamimidoyl-6-chloro-5-(isobutyl(methyl)amino)pyrazine-2-carboxamide], the “Effect on anti-HCV activity of NS3 protease inhibitor SCH503034” value [1] was “increases the anti-HCV activity”, the “Effect on genotype 1b 4BAH2 membrane association (QCM-D)” value (genotype 1b 4BAH2 [2]) was “no effect” and the “Effect on genotype 2a 4BAH2 membrane association (QCM-D)” value (genotype 2a 4BAH2) was “no effect”. For the same compound, the “Inhibition of genotype 1b 4BAH2-mediated vesicle aggregation (DLS)” value (genotype 1b 4BAH2 [3]) was “inhibited genotype 1b 4BAH2-mediated vesicle aggregation”.

— patent US20110217265A1, “Screening for Inhibitors of HCV Amphipathic Helix (AH) Function” (priority 2008, published 2011)
